Measured values from patent US7638509B2, “Diene compounds and formulations” (priority 2003, dated 2009).

What was measured:
[1] = biological target: T1, AR with coactivator ARA70 (Homo sapiens, UniProt P10275); test: ARA70 enhancement of AR transactivation, MMTV-Luc in DU145 cells with pSG5-AR and pSG5-ARA70; type: cell-based; conditions: DU145, pSG5-AR + MMTV-Luc with or without pSG5-ARA70
T1 construct: expressed in transfected cells; host or cells: DU145
T1 sequence (P10275 1-920): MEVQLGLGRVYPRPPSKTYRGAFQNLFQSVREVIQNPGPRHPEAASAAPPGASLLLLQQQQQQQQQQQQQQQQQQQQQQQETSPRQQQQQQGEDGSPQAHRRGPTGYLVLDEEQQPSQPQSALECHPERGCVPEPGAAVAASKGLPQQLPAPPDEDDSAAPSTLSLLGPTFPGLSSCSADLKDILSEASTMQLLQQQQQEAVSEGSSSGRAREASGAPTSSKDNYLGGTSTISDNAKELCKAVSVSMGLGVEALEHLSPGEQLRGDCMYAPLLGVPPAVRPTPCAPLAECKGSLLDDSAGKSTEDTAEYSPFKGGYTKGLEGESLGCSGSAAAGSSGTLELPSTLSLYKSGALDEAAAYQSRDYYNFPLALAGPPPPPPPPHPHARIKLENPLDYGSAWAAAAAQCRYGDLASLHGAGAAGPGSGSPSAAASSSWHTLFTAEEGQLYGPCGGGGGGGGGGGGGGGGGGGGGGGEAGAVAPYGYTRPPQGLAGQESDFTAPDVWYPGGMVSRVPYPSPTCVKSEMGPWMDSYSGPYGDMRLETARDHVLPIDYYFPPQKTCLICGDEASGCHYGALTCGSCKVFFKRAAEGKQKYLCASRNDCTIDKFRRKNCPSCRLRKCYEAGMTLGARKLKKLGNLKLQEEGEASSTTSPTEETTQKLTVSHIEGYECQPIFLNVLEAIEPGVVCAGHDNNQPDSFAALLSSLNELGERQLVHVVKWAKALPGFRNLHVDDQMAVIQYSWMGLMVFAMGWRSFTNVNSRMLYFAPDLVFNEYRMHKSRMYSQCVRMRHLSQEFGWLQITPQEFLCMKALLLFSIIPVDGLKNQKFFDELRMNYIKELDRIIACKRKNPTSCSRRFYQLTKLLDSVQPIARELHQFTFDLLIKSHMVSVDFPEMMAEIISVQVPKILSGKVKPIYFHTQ
Description: (§1) Cell Culture, Transfection, and Reporter Gene Assay. The human prostate cancer cell lines, LNCaP, PC-3, and DU145, and non-prostate cancer cell line COS-1 were maintained in RPMI or Dulbecco's modified Eagle's medium (DMEM) (Life Technologies) supplemented with 10% fetal bovine serum (FBS). Transfections and luciferase (Luc) assays were performed as previously described (Miyamoto, H., Yeh, S., Wilding, G. & Chang, C. (1998) Proc. Natl. Acad. Sci. USA 95, 7379-7384; Miyamoto, H., Rahman, M., Takatera, H., Kang, H.-Y., Yeh, S., Chang, H.-C., Nishimura, K., Fujimoto, N. & Chang, C. (2002) J. Biol. Chem. 277, 4609-4617). Briefly, cells seeded to reach a density of 50-60% confluence in 12 well tissue culture plates were transfected with 1.5 μg of DNA according to “SuperFect transfection” instructions (Qiagen). After 2-3 h incubation, cells were treated with medium supplemented with charcoal-stripped FBS containing either ethanol or ligands for 24 h. The cells were then harvested and whole cell extracts were used for Luc assay. The Luc activity was determined using a Dual-Luciferase Reporter Assay System (Promega) and luminometer.
The effects of ADEK on the DHT-induced transcriptional activity of AR was examined in COS-1 or LNCaP cells transfected with MMTV-Luc. The pSG5-AR was co-transfected in COS-1 cells. […] Values were obtained from the mean±SD of at least three determinations. […]

wild-type AR [2] = biological target: T2, wild-type AR (Homo sapiens, UniProt P10275); test: Anti-DHT activity on AR transcription, MMTV-Luc reporter in PC-3 cells transfected with AR; type: cell-based; design: expressed in transfected cells; host or cells: PC-3; conditions: PC-3, 1 nM DHT, compound at 0.01, 0.1 or 1 μM, dose-dependent
T2 sequence (P10275 1-920): T1 sequence (P10275 1-920)
Description: as §1
To accomplish these studies, PC-3 cells were transfected with the wild-type AR expression plasmid pSG5-AR and MMTV-Luc. […] The Luc activity was measured relative to that of ethanol treatment (set as 1-fold). Values from the mean±SD of at least three determinations were used. PC-3 cells were transfected with the pSG5-AR and MMTV-Luc. […] Values from the mean±SD of at least three determinations were obtained.

wild-type AR [3] = biological target: T2, wild-type AR; test: Adiol-induced AR transcription, MMTV-Luc in PC-3 cells with pSG5-AR; type: cell-based; design: expressed in transfected cells; host or cells: PC-3; conditions: PC-3, 2.5 nM Adiol, compound at 1 μM
Description: as §1
Effect of ADEK on AR Transcription. […] (set as 100%). Values were obtained from the mean±SD of at least three determinations.

Structure (SMILES): CC(=O)O[C@H]1C=C[C@@]2(C)C(=CC[C@@H]3[C@@H]2CC[C@@]2(C)[C@H]3CCC23OCCO3)C1 [ADEK, 3β-acetoxy-17,17-ethylenedioxyandrosta-1,5-diene]
- enhancement of AR transactivation by ARA70 in the presence of compound [1]: < 2 fold
- melting point: 105 to 106 °C
- DHT-induced AR transactivation suppressed to (Luc activity relative to DHT = 100%) (wild-type AR [2]): 30%
- repression of Adiol-induced AR transcription (wild-type AR [3]): about 43%
